Source: patent US8501238B2, “Anti-infective agents and uses thereof” (priority 2007, dated 2013)

Tests used:
[1] = test system: genotype 1a-H77 subgenomic replicon cell line; experiment: microbe, parasite or virus in culture; assay type: cell-based, HCV; details: Hepatitis C virus, 72 h, read-out: EC50 1a
[2] = test system: genotype 1b-Con1 subgenomic replicon cell line; experiment: microbe, parasite or virus in culture; assay type: cell-based, HCV; details: Hepatitis C virus, 72 h, read-out: EC50 1b
[3] = biological target: T1, HCV polymerase 1A (Δ21 NS5B) (Hepatitis C virus genotype 1a, UniProt P27958); experiment: HCV Polymerase Inhibition Assay (1a); assay type: biochemical
T1 construct: 20 to 50nM Δ21 NS5B
Method: The reaction was initiated by the addition of 20μM CTP, 20μM ATP, 1μM ^3H-UTP (10mCi/umol), 5nM template RNA and 0.1 U/μl RNase inhibitor (RNasin, Promega), and allowed to proceed for 2 to 4h at room temperature. Reaction volume was 50μl. The reaction was terminated by the addition of 1 volume of 4mM spermine in 10mM Tris-Cl pH 8.0, 1mM EDTA. After incubation for at least 15 min at room temperature, the precipitated RNA was captured by filtering through a GF/B filter (Millipore) in a 96 well format. The filter plate was washed three times with 200μl each of 2mM spermine, 10mM Tris-Cl pH 8.0, lmM EDTA, and 2 times with ethanol. After air-drying, 30μl of Microscint 20 scintillation cocktail (Packard) was added to each well, and the retained cpm were determined by scintillation counting. […] Retained cpm were plotted vs. inhibitor concentration and fit to equation 1 using non-linear regression (ref. 1) to obtain the IC50 values: Retained cpm=A[sqrt{(IC50+It−Et)^2+4*IC50*Et}−([…])]
Ref. Morrison, J. F. and S. R. Stone. […] Approaches to the study and analysis of the inhibition of enzymes by slow- and tight-binding inhibitors. Comments Mol. Cell. Biophys.
(§1) The sequence of the template RNA used was: 5′-[…]-3′

[4] = biological target: T2, HCV polymerase 1B (Δ21 NS5B) (Hepatitis C virus genotype 1b, UniProt P26663); experiment: biochemical
T2 construct: 20 to 50nM Δ21 NS5B
Method: Either two-fold serial dilutions (fractional inhibition assay) or a narrower range of dilutions spanning the IC50 of the inhibitor (tight binding assay) of the inhibitors were incubated with 20mM Tris-Cl pH 7.4, 2 mM MnCl2, 1 mM dithiothreitol, 1 mM ethylene diamine tetraacetic acid (EDTA), 60 to 125μM GTP and 20 to 50nM Δ21 NS5B (HCV Strain 1B (BK, Genbank accession number M58335, or H77, Genbank accession number AF011751)) for 15min at room temperature. The reaction was initiated by the addition of 20μM CTP, 20μM ATP, 1μM ^3H-UTP (10mCi/umol), 5nM template RNA and 0.1 U/μl RNase inhibitor (RNasin, Promega), and allowed to proceed for 2 to 4h at room temperature. Reaction volume was 50μl. The reaction was terminated by the addition of 1 volume of 4mM spermine in 10mM Tris-Cl pH 8.0, 1mM EDTA. After incubation for at least 15 min at room temperature, the precipitated RNA was captured by filtering through a GF/B filter (Millipore) in a 96 well format. The filter plate was washed three times with 200μl each of 2mM spermine, 10mM Tris-Cl pH 8.0, lmM EDTA, and 2 times with ethanol. After air-drying, 30μl of Microscint 20 scintillation cocktail (Packard) was added to each well, and the retained cpm were determined by scintillation counting. […] Retained cpm were plotted vs. inhibitor concentration and fit to equation 1 using non-linear regression (ref. 1) to obtain the IC50 values: Retained cpm=A[sqrt{(IC50+It−Et)^2+4*IC50*Et}−([…])]
Ref. Morrison, J. F. and S. R. Stone. 1985. Approaches to the study and analysis of the inhibition of enzymes by slow- and tight-binding inhibitors. Comments Mol. Cell. Biophys. 2: 347-368.
as §1

T1 sequence (P27958 2421-2990, stated change not applied): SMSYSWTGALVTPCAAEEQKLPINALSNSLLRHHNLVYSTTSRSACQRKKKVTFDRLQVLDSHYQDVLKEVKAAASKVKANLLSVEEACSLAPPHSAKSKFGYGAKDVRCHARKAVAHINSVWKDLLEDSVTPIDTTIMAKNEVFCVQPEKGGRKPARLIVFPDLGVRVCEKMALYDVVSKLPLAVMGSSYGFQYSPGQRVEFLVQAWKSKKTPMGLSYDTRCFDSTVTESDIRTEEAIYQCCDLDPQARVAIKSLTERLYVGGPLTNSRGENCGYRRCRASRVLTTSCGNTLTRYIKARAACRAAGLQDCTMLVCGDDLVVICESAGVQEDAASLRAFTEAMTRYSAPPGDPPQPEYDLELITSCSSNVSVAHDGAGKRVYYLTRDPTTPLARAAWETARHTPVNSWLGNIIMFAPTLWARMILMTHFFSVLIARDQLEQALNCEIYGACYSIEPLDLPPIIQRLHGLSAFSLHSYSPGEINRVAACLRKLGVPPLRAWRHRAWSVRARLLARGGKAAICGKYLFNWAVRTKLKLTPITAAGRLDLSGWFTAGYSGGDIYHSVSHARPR
T2 sequence (P26663 2420-2989, stated change not applied): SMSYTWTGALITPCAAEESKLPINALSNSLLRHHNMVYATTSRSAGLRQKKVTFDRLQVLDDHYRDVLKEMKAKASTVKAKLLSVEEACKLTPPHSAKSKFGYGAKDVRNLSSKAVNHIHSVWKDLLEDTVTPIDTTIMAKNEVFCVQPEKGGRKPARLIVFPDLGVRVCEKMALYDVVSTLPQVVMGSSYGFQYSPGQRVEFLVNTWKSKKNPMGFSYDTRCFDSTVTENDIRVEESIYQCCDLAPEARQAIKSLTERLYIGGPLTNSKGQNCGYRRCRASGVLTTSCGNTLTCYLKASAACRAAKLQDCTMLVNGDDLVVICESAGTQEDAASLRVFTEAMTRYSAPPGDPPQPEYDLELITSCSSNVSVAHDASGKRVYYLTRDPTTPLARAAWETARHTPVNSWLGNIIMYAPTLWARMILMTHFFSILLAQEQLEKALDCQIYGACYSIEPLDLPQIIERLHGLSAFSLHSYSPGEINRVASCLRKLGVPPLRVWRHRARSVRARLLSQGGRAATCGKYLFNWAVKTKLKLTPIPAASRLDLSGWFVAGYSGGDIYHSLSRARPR

| SMILES | EC50 [1] | EC50 [2] | IC50 [3] | IC50 [4] |
| --- | --- | --- | --- | --- |
| COc1c(-c2ccc3c(c2)CC[C@@H]3CNS(C)(=O)=O)cc(-n2ccc(=O)[nH]c2=O)cc1C(C)(C)C (single isomer, unassigned) [IB-L0-2.9] | < 10 nM | < 10 nM | – | – |
| COc1c(-c2ccc3c(c2)CC[C@H]3CNS(C)(=O)=O)cc(-n2ccc(=O)[nH]c2=O)cc1C(C)(C)C (single isomer, unassigned) [IB-L0-2.15] | 100 to 1000 nM | 10 to 100 nM | – | – |
| COc1c(-c2ccc3c(c2)CC[C@@H]3C(C)(C)NS(C)(=O)=O)cc(-n2ccc(=O)[nH]c2=O)cc1C(C)(C)C (single isomer, unassigned) [IB-L0-2.22] | 100 to 1000 nM | 10 to 100 nM | – | – |
| COc1c(-c2ccc3c(c2)CC[C@H]3C(C)(C)NS(C)(=O)=O)cc(-n2ccc(=O)[nH]c2=O)cc1C(C)(C)C (single isomer, unassigned) [IB-L0-2.37] | > 1000 nM | 100 to 1000 nM | – | – |
| CC(C)(C)c1cc(-c2ccc3c(c2)CC/C3=N\NS(C)(=O)=O)cc(-n2ccc(=O)[nH]c2=O)c1 [IB-L0-2.7, (E)-N-(5-(3-tert-butyl-5-(2,4-dioxo-3,4-dihydropyrimidin-1(2H)-yl)phenyl)-2,3-dihydro-1H-inden-1-ylidene)methanesulfonohydrazide] | 100 to 1000 nM | 10 to 100 nM | – | – |
| COc1c(-c2ccc3c(CNS(C)(=O)=O)csc3c2)cc(-n2ccc(=O)[nH]c2=O)cc1C(C)(C)C [IB-L0-2.11] | 10 to 100 nM | < 10 nM | – | – |
| COc1c(-c2ccc3c(c2)CCC3(F)CNS(C)(=O)=O)cc(-n2ccc(=O)[nH]c2=O)cc1C(C)(C)C (centres unmarked) [IB-L0-2.12, N-((5-(3-tert-butyl-5-(2,4-dioxo-3,4-dihydropyrimidin-1(2H)-yl)-2-methoxyphenyl)-1-fluoro-2,3-dihydro-1H-inden-1-yl)methyl)methanesulfonamide] | 10 to 100 nM | < 10 nM | – | – |
| COc1c(-c2ccc3c(c2)CC=C3CNS(C)(=O)=O)cc(-n2ccc(=O)[nH]c2=O)cc1C(C)(C)C [IB-L0-2.13] | 10 to 100 nM | < 10 nM | – | – |
| COc1c(-c2ccc3c(c2)CC=C3CN(C)S(C)(=O)=O)cc(-n2ccc(=O)[nH]c2=O)cc1C(C)(C)C [IB-L0-2.16] | – | – | < 10 nM | 10 to 100 nM |
| COc1c(-c2ccc3c(c2)CCC3CNS(C)(=O)=O)cc(-n2ccc(=O)[nH]c2=O)cc1C(C)(C)C (centres unmarked) [IB-L0-2.17, N-((5-(3-tert-butyl-5-(2,4-dioxo-3,4-dihydropyrimidin-1(2H)-yl)-2-methoxyphenyl)-2,3-dihydro-1H-inden-1-yl)methyl)methanesulfonamide] | 10 to 100 nM | < 10 nM | – | – |
| COc1c(-c2ccc3c(CNS(C)(=O)=O)coc3c2)cc(-n2ccc(=O)[nH]c2=O)cc1C(C)(C)C [IB-L0-2.18] | 100 to 1000 nM | 10 to 100 nM | – | – |
| COc1c(-c2ccc3c(CN(C)S(C)(=O)=O)csc3c2)cc(-n2ccc(=O)[nH]c2=O)cc1C(C)(C)C [IB-L0-2.21] | 100 to 1000 nM | 10 to 100 nM | – | – |
| COC(=O)NN=C1CCc2cc(-c3cc(-n4ccc(=O)[nH]c4=O)cc(C(C)(C)C)c3OC)ccc21 [IB-L0-2.24, methyl 2-(5-(3-tert-butyl-5-(2,4-dioxo-3,4-dihydropyrimidin-1 (2H)-yl)-2-methoxyphenyl)-2,3-dihydro-1H-inden-1-ylidene)hydrazinecarboxylate] | 10 to 100 nM | 10 to 100 nM | – | – |
| COc1c(-c2ccc3c(c2)CCC3(C)CNS(C)(=O)=O)cc(-n2ccc(=O)[nH]c2=O)cc1C(C)(C)C (centres unmarked) [IB-L0-2.25, N-((5-(3-tert-butyl-5-(2,4-dioxo-3,4-dihydropyrimidin-1(2H)-yl)-2-methoxyphenyl)-1-methyl-2,3-dihydro-1H-inden-1-yl)methyl)methane sulfonamide] | 100 to 1000 nM | 10 to 100 nM | – | – |
| COc1c(-c2ccc3c(c2)CCC3C(C)(C)NS(C)(=O)=O)cc(-n2ccc(=O)[nH]c2=O)cc1C(C)(C)C (centres unmarked) [IB-L0-2.29, N-(2-(5-(3-tert-butyl-5-(2,4-dioxo-3,4-dihydropyrimidin-1(2H)-yl)-2-methoxyphenyl)-2,3-dihydro-1H-inden-1-yl)propan-2-yl)methanesulfonamide] | 100 to 1000 nM | 10 to 100 nM | – | – |
| COc1c(-c2ccc3c(c2)CCC3C(=O)NS(C)(=O)=O)cc(-n2ccc(=O)[nH]c2=O)cc1C(C)(C)C (centres unmarked) [IB-L0-2.34, 5-(3-tert-butyl-5-(2,4-dioxo-3,4-dihydropyrimidin-1(2H)-yl)-2-methoxyphenyl)-N-(methylsulfonyl)-2,3-dihydro-1H-indene-1-carboxamide] | > 1000 nM | 100 to 1000 nM | – | – |
| CC(C)(C)c1cc(-n2ccc(=O)[nH]c2=O)cc(-c2ccc3c(CNS(C)(=O)=O)csc3c2)c1Cl [IB-L0-2.35, N-((6-(3-tert-butyl-2-chloro-5-(2,4-dioxo-3,4-dihydropyrimidin-1(2H)-yl)phenyl)benzo [b]thiophen-3-yl)methyl)methanesulfonamide] | > 1000 nM | 100 to 1000 nM | – | – |
| COc1c(-c2ccc3c(c2)CCC3O)cc(-n2ccc(=O)[nH]c2=O)cc1C(C)(C)C (centres unmarked) [IB-L0-2.36, 1-(3-tert-butyl-5-(1-hydroxy-2,3-dihydro-1H-inden-5-yl)-4-methoxyphenyl)pyrimidine-2,4(1H,3H)-dione] | 100 to 1000 nM | 10 to 100 nM | – | – |
| COc1c(-c2ccc3cc(CNS(C)(=O)=O)sc3c2)cc(-n2ccc(=O)[nH]c2=O)cc1C(C)(C)C [IB-L0-2.40] | > 1000 nM | 100 to 1000 nM | – | – |
| COc1c(-c2ccc3c(c2)CCC3NS(C)(=O)=O)cc(-n2ccc(=O)[nH]c2=O)cc1C(C)(C)C (centres unmarked) [IB-L0-2.44, N-(5-(3-tert-butyl-5-(2,4-dioxo-3,4-dihydropyrimidin-1(2H)-yl)-2-methoxyphenyl)-2,3-dihydro-1H-inden-1-yl)methanesulfonamide] | > 1000 nM | > 1000 nM | – | – |
| CCCNc1nc2ccc(-c3cc(-n4ccc(=O)[nH]c4=O)cc(C(C)(C)C)c3OC)cc2s1 [IB-L0-2.46, 1-(3-tert-butyl-4-methoxy-5-(2-(propylamino)benzo[d]thiazol-6-yl)phenyl)pyrimidine-2,4(1H,3H)-dione] | – | – | 100 to 1000 nM | 100 to 1000 nM |
| COc1c(-c2ccc3nc(-n4c(C)ccc4C)sc3c2)cc(-n2ccc(=O)[nH]c2=O)cc1C(C)(C)C [IB-L0-2.47, 1-(3-tert-butyl-5-(2-(2,5-dimethyl-1H-pyrrol-1-yl)benzo[d]thiazol-6-yl)-4-methoxyphenyl)pyrimidine-2,4(1H,3H)-dione] | – | – | > 1000 nM | > 1000 nM |
| COc1c(-c2ccc3cc(NS(C)(=O)=O)ccc3n2)cc(-n2ccc(=O)[nH]c2=O)cc1C(C)(C)C [IB-L0-2.48, N-(2-(3-tert-butyl-5-(2,4-dioxo-3,4-dihydropyrimidin-1(2H)-yl)-2-methoxyphenyl)quinolin-6-yl)methanesulfonamide] | – | – | > 1000 nM | > 1000 nM |
| COc1c(-c2ccc3c(c2)CCC3=O)cc(-n2ccc(=O)[nH]c2=O)cc1C(C)(C)C [IB-L0-2.50, 1-(3-tert-butyl-4-methoxy-5-(1-oxo-2,3-dihydro-1H-inden-5-yl)phenyl)pyrimidine-2,4(1H,3H)-dione] | 100 to 1000 nM | 100 to 1000 nM | – | – |
| COc1c(-c2ccsc2)cc(-n2ccc(=O)[nH]c2=O)cc1-c1ccc2c(c1)CC=C2CNS(C)(=O)=O [IB-L0-2.62] | 100 to 1000 nM | 10 to 100 nM | – | – |
| COc1c(-c2ccc3c(c2)CC=C3CNS(C)(=O)=O)cc(-n2ccc(=O)[nH]c2=O)cc1-c1cccs1 [IB-L0-2.63] | 100 to 1000 nM | 10 to 100 nM | – | – |
| COc1c(-c2ccc3c(c2)CC=C3CNS(C)(=O)=O)cc(-n2ccc(=O)[nH]c2=O)cc1-c1ccco1 [IB-L0-2.65] | 100 to 1000 nM | 10 to 100 nM | – | – |
| COc1c(-c2ccoc2)cc(-n2ccc(=O)[nH]c2=O)cc1-c1ccc2c(c1)CC=C2CNS(C)(=O)=O [IB-L0-2.67] | 100 to 1000 nM | 10 to 100 nM | – | – |
